{"source": "paper PMC7880554", "about": "(ACS chemical biology, 2016)", "target": "Culp1 (Rv1984c) (Mycobacterium tuberculosis, UniProt P9WP43)", "sequence (P9WP43 33-217)": "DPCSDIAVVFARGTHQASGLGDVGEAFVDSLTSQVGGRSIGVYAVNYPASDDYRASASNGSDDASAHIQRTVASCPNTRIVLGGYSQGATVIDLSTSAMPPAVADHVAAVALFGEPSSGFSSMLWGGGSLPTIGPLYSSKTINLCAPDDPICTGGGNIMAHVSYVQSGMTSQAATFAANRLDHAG", "details": "band identified by mass spectrometry; transposon mutant control", "data": [{"smiles": "CCCCCCCC(=O)OCOc1ccc2c(c1)C(C)(C)C1=C(Cl)C(=O)C(Cl)=CC1=N2", "note": "[DDAO-7-OME]", "values": [{"measurement": "in-gel fluorogenic activity, native PAGE-resolved lysate", "value": "DDAO-7-OME provided the clearest Mtb banding patterns in these complex lysates and revealed Culp1 activity"}]}]}
